Each structure is given as a SMILES string.

The target of one experiment is T1, full-length beta-catenin (Axin site) (Homo sapiens, UniProt P35222).
T1 construct: 15 nM full-length beta-catenin, 20 nM FITC labeled peptide in buffer
T1 sequence (P35222 1-781): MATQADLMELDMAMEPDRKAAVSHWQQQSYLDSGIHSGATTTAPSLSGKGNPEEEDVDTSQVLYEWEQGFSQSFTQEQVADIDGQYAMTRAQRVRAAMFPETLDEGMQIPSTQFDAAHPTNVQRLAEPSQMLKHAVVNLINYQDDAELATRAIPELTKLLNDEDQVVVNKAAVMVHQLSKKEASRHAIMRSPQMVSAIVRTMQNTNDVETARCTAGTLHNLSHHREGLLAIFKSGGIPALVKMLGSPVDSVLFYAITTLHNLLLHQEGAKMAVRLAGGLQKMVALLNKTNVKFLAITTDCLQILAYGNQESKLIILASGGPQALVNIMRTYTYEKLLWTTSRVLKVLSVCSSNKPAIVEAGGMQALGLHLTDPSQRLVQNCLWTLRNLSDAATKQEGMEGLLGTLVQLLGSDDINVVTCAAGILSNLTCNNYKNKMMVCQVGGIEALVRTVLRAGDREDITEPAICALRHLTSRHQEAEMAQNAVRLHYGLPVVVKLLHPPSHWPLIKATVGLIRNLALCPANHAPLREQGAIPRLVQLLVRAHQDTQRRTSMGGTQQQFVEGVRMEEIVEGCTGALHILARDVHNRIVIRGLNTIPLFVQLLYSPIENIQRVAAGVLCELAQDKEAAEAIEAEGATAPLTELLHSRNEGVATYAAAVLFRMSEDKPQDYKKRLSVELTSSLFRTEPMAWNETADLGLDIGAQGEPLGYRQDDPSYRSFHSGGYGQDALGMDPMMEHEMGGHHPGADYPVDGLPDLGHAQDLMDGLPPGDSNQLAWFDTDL
The experiment in a line: Competition fluorescence polarization assay (Axin site probe). It counts as binding. The note with it: competition fluorescence polarization, Table 2; read-out: in vitro FP EC50. The method, boiled down:
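Competition FP: 15 nM full-length β-catenin pre-incubated 5 min with 20 nM FITC-labelled stapled Axin-site peptide, then titrated peptide added (3-fold series from 5 μM) for 15 min in the dark. Buffer 50 mM Tris pH 8.0, 250 mM NaCl, 2% glycerol, 0.5 mM EDTA; duplicate reads.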
As for `CC[C@H](C)[C@@H]1NC(=O)[C@](C)(NC(=O)[C@H](CCC(N)=O)NC(=O)[C@@H]2CCCN2C(C)=O)CCCC=CCN(C)CC[C@](C)(C(=O)N[C@@H](Cc2c[nH]cn2)C(=O)N[C@H](C(=O)N[C@@H](CCCNC(=N)N)C(=O)N[C@@H](CCCNC(=N)N)C(=O)N[C@H](C(=O)N[C@@H](Cc2c[nH]c3ccccc23)C(=O)N[C@@H](CCCNC(=N)N)C(N)=O)C(C)C)C(C)C)NC(=O)[C@H](CC(=O)O)NC(=O)[C@H](CC(C)C)NC1=O` (single isomer, unassigned) [FP0776a, Ac-P-Q-R5-I-L-D-MG-H-V-R-R-V-W-R-NH2], the EC50 was in the range of 0.5 to 5 µM.

As for `CC[C@H](C)[C@@H]1NC(=O)[C@](C)(NC(=O)[C@H](CCC(N)=O)NC(=O)[C@@H]2CCCN2C(C)=O)CCCC=CCOC(=O)N(C)CC[C@](C)(C(=O)N[C@@H](Cc2c[nH]cn2)C(=O)N[C@H](C(=O)N[C@@H](CCCNC(=N)N)C(=O)N[C@@H](CCCNC(=N)N)C(=O)N[C@H](C(=O)N[C@@H](Cc2c[nH]c3ccccc23)C(=O)N[C@@H](CCCNC(=N)N)C(N)=O)C(C)C)C(C)C)NC(=O)[C@H](CC(=O)O)NC(=O)[C@H](CC(C)C)NC1=O` (single isomer, unassigned) [FP0776c, Ac-P-Q-R5-I-L-D-MG-H-V-R-R-V-W-R-NH2], the EC50 was in the range of 0.5 to 5 µM.

Regarding `CC[C@H](C)[C@@H]1NC(=O)[C@](C)(NC(=O)[C@H](CCC(N)=O)NC(=O)[C@@H]2CCCN2C(C)=O)CCCC=CCN(C)CCC[C@](C)(C(=O)N[C@@H](Cc2c[nH]cn2)C(=O)N[C@H](C(=O)N[C@@H](CCCNC(=N)N)C(=O)N[C@@H](CCCNC(=N)N)C(=O)N[C@H](C(=O)N[C@@H](Cc2c[nH]c3ccccc23)C(=O)N[C@@H](CCCNC(=N)N)C(N)=O)C(C)C)C(C)C)NC(=O)[C@H](CC(=O)O)NC(=O)[C@H](CC(C)C)NC1=O` (single isomer, unassigned) [FP0777a, Ac-P-Q-R5-I-L-D-MI-H-V-R-R-V-W-R-NH2], the EC50 is 0.5 to 5 µM.

Turning to `CC[C@H](C)[C@@H]1NC(=O)[C@](C)(NC(=O)[C@H](CCC(N)=O)NC(=O)[C@@H]2CCCN2C(C)=O)CCCC=CCOC(=O)N(C)CCC[C@](C)(C(=O)N[C@@H](Cc2c[nH]cn2)C(=O)N[C@H](C(=O)N[C@@H](CCCNC(=N)N)C(=O)N[C@@H](CCCNC(=N)N)C(=O)N[C@H](C(=O)N[C@@H](Cc2c[nH]c3ccccc23)C(=O)N[C@@H](CCCNC(=N)N)C(N)=O)C(C)C)C(C)C)NC(=O)[C@H](CC(=O)O)NC(=O)[C@H](CC(C)C)NC1=O` (single isomer, unassigned) [FP0777c, Ac-P-Q-R5-I-L-D-MI-H-V-R-R-V-W-R-NH2], the EC50 was in the range of 0.5 to 5 µM.

With `CC[C@H](C)[C@@H]1NC(=O)[C@@](C)(NC(=O)[C@H](CCC(N)=O)NC(=O)[C@@H]2CCCN2C(C)=O)CN(C)C(=O)OCC=CCCC[C@@](C)(C(=O)N[C@@H](Cc2c[nH]cn2)C(=O)N[C@H](C(=O)N[C@@H](CCCNC(=N)N)C(=O)N[C@@H](CCCNC(=N)N)C(=O)N[C@H](C(=O)N[C@@H](Cc2c[nH]c3ccccc23)C(=O)N[C@@H](CCCNC(=N)N)C(N)=O)C(C)C)C(C)C)NC(=O)[C@H](CC(=O)O)NC(=O)[C@H](CC(C)C)NC1=O` (single isomer, unassigned) [FP0778c, Ac-P-Q-MD-I-L-D-S5-H-V-R-R-V-W-R-NH2], the EC50 lay within 0.5 to 5 µM.

As to `CC[C@H](C)[C@@H]1NC(=O)[C@@](C)(NC(=O)[C@H](CCC(N)=O)NC(=O)[C@@H]2CCCN2C(C)=O)CCN(C)C(=O)OCC=CCCC[C@@](C)(C(=O)N[C@@H](Cc2c[nH]cn2)C(=O)N[C@H](C(=O)N[C@@H](CCCNC(=N)N)C(=O)N[C@@H](CCCNC(=N)N)C(=O)N[C@H](C(=O)N[C@@H](Cc2c[nH]c3ccccc23)C(=O)N[C@@H](CCCNC(=N)N)C(N)=O)C(C)C)C(C)C)NC(=O)[C@H](CC(=O)O)NC(=O)[C@H](CC(C)C)NC1=O` (single isomer, unassigned) [FP0779c, Ac-P-Q-MF-I-L-D-S5-H-V-R-R-V-W-R-NH2], the EC50 lay in the range of 0.5 to 5 µM.

Consider `CC[C@H](C)[C@@H]1NC(=O)[C@@](C)(NC(=O)[C@H](CCC(N)=O)NC(=O)[C@@H]2CCCN2C(C)=O)CCCN(C)C(=O)OCC=CCCC[C@@](C)(C(=O)N[C@@H](Cc2c[nH]cn2)C(=O)N[C@H](C(=O)N[C@@H](CCCNC(=N)N)C(=O)N[C@@H](CCCNC(=N)N)C(=O)N[C@H](C(=O)N[C@@H](Cc2c[nH]c3ccccc23)C(=O)N[C@@H](CCCNC(=N)N)C(N)=O)C(C)C)C(C)C)NC(=O)[C@H](CC(=O)O)NC(=O)[C@H](CC(C)C)NC1=O` (single isomer, unassigned) [FP0780c, Ac-P-Q-MH-I-L-D-S5-H-V-R-R-V-W-R-NH2], for which the EC50 is 0.5 to 5 µM.

Take `CC[C@H](C)[C@@H]1NC(=O)[C@](C)(NC(=O)[C@H](CCC(N)=O)NC(=O)[C@@H]2CCCN2C(C)=O)CCN(C)C(=O)OCC=CCCC[C@](C)(C(=O)N[C@@H](Cc2c[nH]cn2)C(=O)N[C@H](C(=O)N[C@@H](CCCNC(=N)N)C(=O)N[C@@H](CCCNC(=N)N)C(=O)N[C@H](C(=O)N[C@@H](Cc2c[nH]c3ccccc23)C(=O)N[C@@H](CCCNC(=N)N)C(N)=O)C(C)C)C(C)C)NC(=O)[C@H](CC(=O)O)NC(=O)[C@H](CC(C)C)NC1=O` (single isomer, unassigned) [FP0782c, Ac-P-Q-MG-I-L-D-R5-H-V-R-R-V-W-R-NH2]: the EC50 lay within 0.1 to 0.5 µM.

Take `CC[C@H](C)[C@@H]1NC(=O)[C@](C)(NC(=O)[C@H](CCC(N)=O)NC(=O)[C@@H]2CCCN2C(C)=O)CCCN(C)CC=CCCC[C@](C)(C(=O)N[C@@H](Cc2c[nH]cn2)C(=O)N[C@H](C(=O)N[C@@H](CCCNC(=N)N)C(=O)N[C@@H](CCCNC(=N)N)C(=O)N[C@H](C(=O)N[C@@H](Cc2c[nH]c3ccccc23)C(=O)N[C@@H](CCCNC(=N)N)C(N)=O)C(C)C)C(C)C)NC(=O)[C@H](CC(=O)O)NC(=O)[C@H](CC(C)C)NC1=O` (single isomer, unassigned) [FP0783a, Ac-P-Q-MI-I-L-D-R5-H-V-R-R-V-W-R-NH2]: the EC50 was 0.5 to 5 µM.

On to `CC[C@H](C)[C@@H]1NC(=O)[C@](C)(NC(=O)[C@H](CCC(N)=O)NC(=O)[C@@H]2CCCN2C(C)=O)CCCN(C)C(=O)OCC=CCCC[C@](C)(C(=O)N[C@@H](Cc2c[nH]cn2)C(=O)N[C@H](C(=O)N[C@@H](CCCNC(=N)N)C(=O)N[C@@H](CCCNC(=N)N)C(=O)N[C@H](C(=O)N[C@@H](Cc2c[nH]c3ccccc23)C(=O)N[C@@H](CCCNC(=N)N)C(N)=O)C(C)C)C(C)C)NC(=O)[C@H](CC(=O)O)NC(=O)[C@H](CC(C)C)NC1=O` (single isomer, unassigned) [FP0783c, Ac-P-Q-MI-I-L-D-R5-H-V-R-R-V-W-R-NH2], for which the EC50 lay within 0.5 to 5 µM.

Still in this experiment, the particulars now being: competition with FITC labeled Axin-site probe, 15 nM full-length beta-catenin; read-out: FP EC50.
For `CC[C@H](C)[C@@H]1NC(=O)C2(NC(=O)[C@H](CCC(N)=O)NC(=O)[C@@H]3CCCN3C(C)=O)CN(C2)C(=O)OCC=CCC[C@](C)(C(=O)N[C@@H](Cc2c[nH]cn2)C(=O)N[C@H](C(=O)N[C@@H](CCCNC(=N)N)C(=O)N[C@@H](CCCNC(=N)N)C(=O)N[C@H](C(=O)N[C@@H](Cc2c[nH]c3ccccc23)C(=O)N[C@@H](CCCNC(=N)N)C(N)=O)C(C)C)C(C)C)NC(=O)[C@H](CC(=O)O)NC(=O)[C@H](CC(C)C)NC1=O` (single isomer, unassigned) [FP-0721c, Ac-P-Q-Az-I-L-D-R4-H-V-R-R-V-W-R-NH2], the EC50 amounted to 1.3 µM.

With `CC[C@H](C)[C@@H]1NC(=O)C2(NC(=O)[C@H](CCC(N)=O)NC(=O)[C@@H]3CCCN3C(C)=O)CN(C2)C(=O)OCC=CCCC[C@](C)(C(=O)N[C@@H](Cc2c[nH]cn2)C(=O)N[C@H](C(=O)N[C@@H](CCCNC(=N)N)C(=O)N[C@@H](CCCNC(=N)N)C(=O)N[C@H](C(=O)N[C@@H](Cc2c[nH]c3ccccc23)C(=O)N[C@@H](CCCNC(=N)N)C(N)=O)C(C)C)C(C)C)NC(=O)[C@H](CC(=O)O)NC(=O)[C@H](CC(C)C)NC1=O` (single isomer, unassigned) [FP-0723c, Ac-P-Q-Az-I-L-D-R5-H-V-R-R-V-W-R-NH2], the EC50 worked out at 1.4 µM.

For `CC[C@H](C)[C@@H]1NC(=O)C2(NC(=O)[C@H](CCC(N)=O)NC(=O)[C@@H]3CCCN3C(C)=O)CN(CC=CCCCC[C@](C)(C(=O)N[C@@H](Cc3c[nH]cn3)C(=O)N[C@H](C(=O)N[C@@H](CCCNC(=N)N)C(=O)N[C@@H](CCCNC(=N)N)C(=O)N[C@H](C(=O)N[C@@H](Cc3c[nH]c4ccccc34)C(=O)N[C@@H](CCCNC(=N)N)C(N)=O)C(C)C)C(C)C)NC(=O)[C@H](CC(=O)O)NC(=O)[C@H](CC(C)C)NC1=O)C2` (single isomer, unassigned) [FP-0725, Ac-P-Q-Az-I-L-D-R6-H-V-R-R-V-W-R-NH2], the EC50 was 0.58 µM.

One may read the EC50 as the midpoint of the concentration-response curve.

Source of the values: patent US11198713B2, “Agents modulating beta-catenin functions and methods thereof” (FOG PHARMACEUTICALS, INC., priority 2017, dated 2021).
